Assay results: ChEMBL document CHEMBL1150543, “Semisynthesis and biological evaluation of brevifoliol 13-[N-benzoyl-(-2R,3S)-3-phenylisoserinate]” (1993)

Legend:
B16 [1] = test: Effective dose against B16 melanoma cells in cytotoxicity assay; format: functional; conditions: Mus musculus, read-out: ED50 (the source's name)
B16 [2] = test: Effective dose against B16 melanoma cells in microtubule assembly assay; format: functional; conditions: Mus musculus, read-out: ED50 (the source's name)

- EC50 (B16 [2]): 1000 nM
SMILES: CC(=O)O[C@H]1C(=O)[C@@]2(C)[C@H]([C@H](OC(=O)c3ccccc3)[C@]3(O)C[C@H](OC(=O)[C@H](O)[C@@H](NC(=O)c4ccccc4)c4ccccc4)C(C)=C1C3(C)C)[C@]1(OC(C)=O)CO[C@@H]1C[C@@H]2O [PACLITAXEL]
- EC50 (B16 [1]): 27 nM
